The text below walks through data of ChEMBL document CHEMBL1156523, “Cryptosporidium p30, a galactose/N-acetylgalactosamine-specific lectin, mediates infection in vitro” (J Biol Chem, 2007).

A short description of test [1]: Inhibition of Cryptosporidium parvum recombinant Galactose/N-acetylgalactosamine-specific lectin binding to Caco2A cells. The format is cell-based. To be noted: caco-2.
For test [2], the system named is Cryptosporidium parvum. Put plainly: Anticryptosporidial activity against Cryptosporidium parvum GCH1 assessed as inhibition of rabbit erythrocytes hemagglutinination. Format: functional.
Test [3] has as its system Cryptosporidium parvum. Put plainly: Anticryptosporidial activity against Cryptosporidium parvum GCH1 assessed as inhibition of rabbit erythrocytes hemagglutinination relative to galactose. The format is functional.
In test [4] the test system is Cryptosporidium hominis. Put plainly: Anticryptosporidial activity against Cryptosporidium hominis TU502 assessed as inhibition of rabbit erythrocytes hemagglutinination. Format: functional.
The test system of test [5] is Cryptosporidium hominis. Put plainly: Anticryptosporidial activity against Cryptosporidium hominis TU502 assessed as inhibition of rabbit erythrocytes hemagglutinination relative to galactose. Format: functional.

Molecules are shown by their SMILES. pIC50: −log10 of the molar value. Values after ≈ are worked out from the molar mass of the structure shown.

Turning to `CC(=O)N[C@H]1C(O)O[C@H](CO)[C@H](O)[C@@H]1O[C@@H]1O[C@H](CO)[C@H](O)[C@H](O)[C@H]1O` (stereo partly drawn), the pIC50 (usually the negative decadic logarithm of the IC50, by convention in mol/L) in test [1] was 2.46.
Regarding `CO[C@H]1O[C@H](CO)[C@@H](O)[C@H](O)[C@H]1O`, the pIC50 in test [1] is < 0.30.
Still for that read-out and setting: under `CC(=O)N[C@@H]1[C@@H](O[C@@H]2O[C@H](CO)[C@H](O)[C@H](O)[C@H]2O)[C@H](O)[C@@H](CO)O[C@H]1O` stands 2.82.
As for `O=C[C@H](O)[C@@H](O)[C@@H](O)[C@H](O)CO` [GALACTOSE], the MIC in the test on Cryptosporidium parvum [2] and with Cryptosporidium hominis [4] was 6.2 mM (≈ 1120 µg/mL) in each case. In addition, the Activity in the test on Cryptosporidium parvum [3] and in the test on Cryptosporidium hominis [5] was 1 each time. Further, the pIC50 in test [1] is 1.90.
For the molecule `O=[N+]([O-])c1ccc(O[C@@H]2O[C@H](CO)[C@H](O)[C@H](O)[C@H]2O)cc1`, in test [1], the pIC50 is 1.30.
On the same count and under the same terms, the result for `CC(=O)N[C@@H]1[C@@H](O)[C@H](O)[C@@H](CO[C@@H]2O[C@H](CO)[C@H](O)[C@H](O)[C@H]2O)O[C@H]1O` reads 3.30; that for `OC[C@H]1O[C@H](O[C@@H]2[C@H](O)[C@@H](O)C(O)O[C@@H]2CO)[C@H](O)[C@@H](O)[C@H]1O` (stereo partly drawn), 2.60.
In the case of `C[C@H](O)[C@@H](O)[C@@H](O)[C@H](O)C=O` [L-FUCOSE], the MIC in the test with Cryptosporidium parvum [2] and in the test on Cryptosporidium hominis [4] was > 100 mM in each case. Further, the Activity in the test with Cryptosporidium parvum [3] and with Cryptosporidium hominis [5] was <0.062 throughout. Moreover, the pIC50 in test [1] was < 0.30.
As for `OC[C@H]1O[C@H](O[C@H]2[C@H](O)[C@@H](O)[C@H](O)O[C@@H]2CO)[C@H](O)[C@@H](O)[C@H]1O`, the pIC50 in test [1] is 2.30.
For the molecule `CC(=O)N[C@@H]1[C@@H](O)[C@H](O)[C@@H](CO)O[C@H]1O` [N-ACETYLGLUCOSAMINE], the MIC (commonly the lowest concentration that inhibits growth of the organism) is 50 mM (≈ 11100 µg/mL) in the test with Cryptosporidium parvum [2] and > 100 mM with Cryptosporidium hominis [4]. Further, the Activity amounted to 0.124 in the test on Cryptosporidium parvum [3] and 0.062 in the test on Cryptosporidium hominis [5]. The pIC50 in test [1] was < 0.30.
In the case of `O=[N+]([O-])c1ccc(O[C@H]2O[C@H](CO)[C@H](O)[C@H](O)[C@H]2O)cc1`, the pIC50 in test [1] was 1.60.
For the molecule `OC[C@H]1OC(O)[C@@H](O)[C@@H](O)[C@@H]1O` (stereo partly drawn) [D-MANNOSE], the MIC was 50 mM (≈ 9010 µg/mL) in the test with Cryptosporidium parvum [2] and > 100 mM with Cryptosporidium hominis [4]. The values for the Activity in the test with Cryptosporidium parvum [3] and in the test with Cryptosporidium hominis [5] were 0.124 and 0.062, respectively. In addition, the pIC50 in test [1] was < 0.30.
On to `OC[C@H]1O[C@@H](O)[C@H](O)[C@@H](O)[C@@H]1O` [DEXTROSE], for which the MIC with Cryptosporidium parvum [2] was 100 mM (≈ 18000 µg/mL); in the test with Cryptosporidium hominis [4] it was > 100 mM. For the same molecule, the Activity in the test on Cryptosporidium parvum [3] and in the test with Cryptosporidium hominis [5] was 0.062 in each case. Further, the negative logarithm of the IC50 (pIC50) in test [1] is < 0.30.
On to `CC(=O)N[C@H]1C(O)O[C@H](CO)[C@H](O)[C@@H]1O` (stereo partly drawn), for which the MIC in the test on Cryptosporidium parvum [2] and in the test on Cryptosporidium hominis [4] was 3.1 mM (≈ 686 µg/mL) in each case. The Activity in the test with Cryptosporidium parvum [3] and in the test on Cryptosporidium hominis [5] was 2 in each case. Also, the pIC50 in test [1] was 2.19.
